In PMC9820559, “Investigation of the Fuzzy Complex between RSV Nucleoprotein and Phosphoprotein to Optimize an Inhibition Assay by Fluorescence Polarization” (International Journal of Molecular Sciences, 2022):
Square brackets hold non-standard residues; d marks the D form. Peptide text beside a SMILES is read from it. * marks the point of attachment. BODIPY(FL) = CC1=CC(C)=[N+]2C1=Cc1ccc(CCC(=O)*)n1[B-]2(F)F; FITC = O=C1OC2(c3ccc(O)cc3Oc3cc(O)ccc32)c2ccc(NC(=S)*)cc21; pS = N[C@@H](COP(=O)(O)O)C(=O)O

Experiments:
[1] = Chemical stability of fluorescently labeled P peptides; format: physicochemical; conditions: slightly acidic conditions / HPLC purification and FP assay conditions
Protocol: We started by labeling the pP11 peptide with N-terminally attached BODIPY FL, as described by Shapiro at al.. […] We then produced F11, another labelled peptide P11, by changing the fluorescent label to fluorescein-5-thiourea (FTU) by coupling with fluorescein-5-isothiocyanate (FITC). […] To directly compare FP and NMR data, we made measurements in MES pH 6.5 buffer. Brij-35 detergent (0.01% w/v) was added below its critical micellar concentration (0.11% w/v) to prevent spurious binding of the peptide to the reading plates. […] We tested buffer with and without salt.
Such derivatives were recently described as tags for bioconjugation, but, to our knowledge, not for an FP assay. […] To assess the properties of BODIPY FL as a fluorescent label for P peptides, we produced a new series of eight dicyano BODIPY FL-labeled (BCNn) peptides of variable length (Table 4) and tested them for N-RNA binding.

[2] = molecular target: T1, RSV N-RNA complex (Human respiratory syncytial virus A, UniProt P03418); test: biochemical; format: binding; conditions: Kd, Fn peptides 200 nM, Tris pH 8.0 without salt; single site binding model
T1 construct: Full-length N was produced by co-expression with the C-terminal domain of RSV P protein in E. coli BL21(DE3); made in house; host or cells: E. coli BL21(DE3), co-transformed with pET-N and pGEX-P(161–241)
Protocol: We carried out FP measurements using the fluorescent F11 peptide and N-RNA complex. […] No salt was added to promote high affinity.
We first measured binding of Fn peptides (200 nM) to N-RNA in Tris buffer by FP (Figure 5A,B). […] We fitted the data with ΔFPmax and Kd as parameters.
We therefore measured fluorescein FP in the presence of N-RNA. […] To test if fluorescein binds to the P-binding site on the N-RNA, we carried out a competition experiment with M76 (Figure 6C).
We first performed FP measurements in salt-free Tris pH 8 buffer (Figure 8A). We measured binding curves using 200 nM of fluorescent peptides.
Fluorescence polarization measurements were carried out on a Paradigm Detection Platform (Beckman Coulter, Brea, CA, USA) operating with a microplate reader, a fluorescein detection cartridge (excitation range 485/20 nm, emission range 535/25 nm for both parallel and perpendicular components) and the SpectraMax Pro 6.1 software (Molecular Devices, San Jose, CA, USA). Samples were placed in polystyrene black flat bottom 96-well microplates (Cellstar, Greiner bio-one, Frickenhausen, Germany) with 20 µL final volume in each well. If not stated otherwise, the final concentration of fluorescent ligands was 200 nM. The buffer was either 20 mM MES pH 6.5, salt-free or with 250 mM NaCl, or 20 mM Tris pH 8.0 salt-free or with 100 mM NaCl, supplemented with 0.01% Brij-35. Mixing was done using the corresponding plate reader option. The temperature was set to 20 °C. Data were recorded in top reading mode. Measurements were done in triplicate and after an incubation time of 30 min, if not indicated otherwise. Fluorescence polarization (FP) in mFP units was determined from the parallel (I∥) and perpendicular (I⊥) components of the emitted light according to Equation (4). A grating factor G of 1.2 was determined using 1 nM fluorescein in 1 mM NaOH and assuming a theoretical FP of 27 mFP [48]. Background signal was measured from wells containing only buffer, and the mean value was subtracted from each I∥ and I⊥ component. (4) FP (mP)=1000×(I∥−G∗I⊥)/(I∥+G×I⊥)
We assumed that the measured fluorescence polarization FP is a linear combination of the FP of the fluorescent probe in the absence of N protein (FPmin) and the FP of N-bound fluorescent probe (FPmax), weighted by the molar fraction. The molar fraction x = [P]bound/[P]0 can then be expressed as a ratio of FP differences (Equation (8)). (8) x=(FP−FPmin)/(FPmax−FPmin)=∆FP/∆FPmax
To determine the Kd value of a complex between a fluorescent probe and N protein, a series of samples with constant probe concentration and varying N concentration was measured. FP binding curves were fitted with a single binding site model and a 1:1 stoichiometry.

T1 sequence (P03418 whole entry, looked up, the tested form may be a part, one chain of several): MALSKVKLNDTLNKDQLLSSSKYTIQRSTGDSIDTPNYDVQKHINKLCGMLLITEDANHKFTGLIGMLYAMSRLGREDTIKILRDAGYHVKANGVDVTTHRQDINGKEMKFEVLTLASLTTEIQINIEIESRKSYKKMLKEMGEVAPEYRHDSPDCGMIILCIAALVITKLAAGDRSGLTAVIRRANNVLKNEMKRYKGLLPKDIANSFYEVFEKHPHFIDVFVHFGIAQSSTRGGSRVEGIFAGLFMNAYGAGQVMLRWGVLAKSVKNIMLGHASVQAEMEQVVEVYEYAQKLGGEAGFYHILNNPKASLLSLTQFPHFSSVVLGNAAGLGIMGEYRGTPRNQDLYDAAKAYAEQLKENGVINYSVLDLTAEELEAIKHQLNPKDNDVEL

| SMILES | chemical stability [1] | Kd [2] [µM] |
| --- | --- | --- |
| Cc1cc(C)n2c1C=C1C=CC(CCC(=O)N[C@@H](CC(=O)O)C(=O)N[C@@H](COP(=O)(O)O)C(=O)N[C@@H](CC(=O)O)C(=O)N[C@@H](CC(N)=O)C(=O)N[C@@H](CC(=O)O)C(=O)N[C@@H](CC(C)C)C(=O)N[C@@H](COP(=O)(O)O)C(=O)N[C@@H](CC(C)C)C(=O)N[C@@H](CCC(=O)O)C(=O)N[C@@H](CC(=O)O)C(=O)N[C@@H](Cc3ccccc3)C(=O)O)=[N+]1[B-]2(F)F [BF2pP11] ({BODIPY(FL)}-D[pS]DNDL[pS]LEDF-OH) | prone to degradation | – |
| CC(C)C[C@H](NC(=O)[C@H](CO)NC(=O)[C@H](CC(C)C)NC(=O)[C@H](CC(=O)O)NC(=O)[C@H](CC(N)=O)NC(=O)[C@H](CC(=O)O)NC(=O)[C@H](CO)NC(=O)[C@H](CC(=O)O)NC(=S)Nc1ccc2c(c1)C(=O)OC21c2ccc(O)cc2Oc2cc(O)ccc21)C(=O)N[C@@H](CCC(=O)O)C(=O)N[C@@H](CC(=O)O)C(=O)N[C@@H](Cc1ccccc1)C(=O)O [F11, ϕ-DS232DNDLS237LEDF-OH] ({FITC}-DSDNDLSLEDF-OH) | stable | 7.6 ± 0.9 |
